US4666908A, “5-Substituted pyrazolo[4,3-d]pyrimidine-7-ones and methods of use” (Warner-Lambert Company, priority 1985, dated 1987)
pIC50: −log10 of the molar value. Read-outs that look alike come from different tables or passages of the source.

What was measured:
[1] = test system: Type 1 Phosphodiesterase; assay: Phosphodiesterase (PDE) Inhibition, Type 1 Phosphodiesterase; assay type: biochemical, bovine (coronary arteries); conditions: Type 1 PDE, at 10^-5 M; for % Inhibition of hydrolysis of 3H-cAMP: substrate 3H-cAMP 1.0 μM; for % Inhibition of hydrolysis of 3H-cGMP: substrate 3H-cGMP 1.0 μM
From the text: (§1) The method of Thompson, et al (Thompson, W. J., Terasaki, W. L., Epstein, P. M., Strada, S. J., Adv. Cyclic Nucleotide Res., 10:69-92, 1979), with minor modifications, was used to isolate phosphodiesterases from vascular smooth muscle. Bovine coronary arteries (right, anterior descending, and left circumflex arteries) from hearts obtained from a local slaughterhouse were used for these studies. Arteries from two hearts were used for each isolation. Hearts were kept on ice and the arteries were dissected within two hours after the animals were sacrificed. After removing all fat and connective tissue, the arteries were everted, cut into cubes with a single edge razor blade and homogenized with a Brinkman Polytron three times at a rheostat setting of 10.0 in four volumes of the PDE isolation buffer (10 mM Tris-HCl/pH 7.5, 2 mM MgCl2, and 1 mM dithiothreitol). The resulting homogenate was sonicated (30 sec/ml homogenate) and then centrifuged at 30,000 xg for 20 minutes. This and all subsequent procedures were performed at 4° C. The resulting supernatant was filtered through four layers of gauze, and applied to a DEAE-cellulose column (30×1.5 cm), prepared as described by Cheung (Cheung, W. Y., Biochim. Biophys. Acta, 191:303-315, 1969), and equilibrated with freshly prepared 70 mM sodium acetate/5 mM 2-mercaptoethanol (pH 6.5). The column was then washed with 2-3 bed volumes of sodium acetate/2-mercaptoethanol, after which the phosphodiesterases were eluted from the column using a continuous 70-1,000 mM sodium acetate gradient (pH 6.5, containing 5 mM 2-mercaptoethanol; total volume 400 ml). The flow rate was approximately equal to 25 ml/hr. Eight ml fractions were collected and assayed for cyclic AMP- and cyclic GMP-phosphodiesterase activity in the presence and absence of 0.1 units of calmodulin and 10 mM CaCl2. Appropriate fractions were pooled and dialyzed against 70 mM sodium acetate/5 mM 2-mercaptoethanol for 20 hours.
(§2) Following complete separation, the combined phosphodiesterase fractions were concentrated to 14% of the original volume using an Amicon ultrafiltration cell fitted with a UM-10 membrane, according to the method of Wells, et al (Wells, J. N., Baird, C. E., Wu, Y. J., Hardman, J. G., Biochim. Biophys. Acta, 384:430-442, 1975). Following concentration, the protein was then diluted to 65% with ethylene glycol monoethyl ether, and stored at -20° C.
(§3) Phosphodiesterase activity was measured as described previously (Weishaar, P. E., Quade, M., Boyd, D., Schenden, J., Mark, S. S., Kaplan, H. R., Drug Devel. Res., 3:517-534, 1983), in a reaction medium containing 40 mM Tris-HCl (pH 8.0), 5 mM MgCl and 4 mM 2-mercaptoethanol. Unless otherwise noted, the concentration of substrate (^3 H-cyclic AMP or ^3 H-cyclic GMP) was 1.0 μM. All agents examined were dissolved in dimethyl sulfoxide (DMSO). Final concentration of the reaction medium was either 2.5% (cardiac and platelet studies) or 1.25% (smooth muscle studies). This concentration of DMSO produced an approximately 10% inhibition of enzyme activity.

[2] = molecular target: T1, adenosine A1 receptor (Rattus norvegicus, UniProt P25099); assay: Adenosine Receptor Binding - A1 Receptor Affinity (RBA1), [3H]-N6-cyclohexyladenosine displacement; conditions: [3H]-CHA 1.0 nM, rat brain membranes, 25° C., one hour; read-out: RBA-1, IC50 for adenosine A1 receptor affinity
T1 construct: Whole brain minus cerebellum and brainstem from male Long Evans rats; from tissue; host or cells: whole brain minus cerebellum and brainstem, male Long Evans rats (membranes)
T1 sequence (P25099 1-326): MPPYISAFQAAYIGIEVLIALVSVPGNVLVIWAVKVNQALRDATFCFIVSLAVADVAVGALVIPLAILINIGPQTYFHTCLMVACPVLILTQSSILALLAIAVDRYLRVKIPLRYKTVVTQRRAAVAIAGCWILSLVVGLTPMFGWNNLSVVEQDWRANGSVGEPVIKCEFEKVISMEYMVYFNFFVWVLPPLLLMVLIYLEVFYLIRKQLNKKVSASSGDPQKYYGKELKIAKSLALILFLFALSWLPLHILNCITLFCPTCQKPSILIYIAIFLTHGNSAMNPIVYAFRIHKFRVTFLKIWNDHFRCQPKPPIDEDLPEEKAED
Experimental: Whole brain minus cerebellum and brainstem from male Long Evans rats (150-200 g) was homogenized in 30 volumes of ice-cold 0.05M Tris-HCl buffer pH 7.7 using a Brinkman Polytron PT-10, (setting number 6 for 20 seconds) and centrifuged for ten minutes at 20,000×g (Sorvall RC-2), 4° C. The supernatant was discarded, and the pellet was resuspended and centrifuged as before. […] The homogenate was again centrifuged, and the final pellet was resuspended in ice-cold 0.05 M Tris-HCl buffer pH 7.7 to a concentration of 20 mg/ml original wet tissue weight and used immediately. […] Incubation volume was 2 ml. […] The filters were rinsed three times with 5 ml of ice cold 0.05 M Tris-HCl buffer pH 7.7. The radio-labeled ligand retained on the filter was measured by liquid scintillation spectrophotometry after shaking the filters for one hour or longer on a mechanical shaker in 10 ml of Beckman Ready-Solv HP scintillation cocktail. […] The Hill coefficient was calculated by linear regression of the line obtained by plotting the log of the bound radioligand vs the log of the [formula] The maximal number of binding sites (Bmax) was calculated from the Scatchard plot.

[3] = test system: Type 3 Phosphodiesterase; assay: Phosphodiesterase (PDE) Inhibition, Type 3 Phosphodiesterase; assay type: biochemical, bovine (coronary arteries); conditions: Type 3 PDE, at 10^-5 M, substrate 3H-cAMP 1.0 μM
From the text: as §1, §2, §3

[4] = test system: pentobarbital-anesthetized dog; assay: In Vivo Myocardial Inotropic Activity in Anesthetized Dog (CVAD); set-up: species or system dog (adult mongrel); conditions: for change in vivo at 0.1 mg/kg / change in vivo at 0.31 mg/kg / change in vivo at 1 mg/kg / change in vivo at 3.1 mg/kg: Canis lupus familiaris, iv; for change in vivo at 0.31 mg/kg: 0.31 mg/kg IV; for change in vivo at 1 mg/kg: 1.00 mg/kg IV; for change in vivo at 3.1 mg/kg: 3.10 mg/kg IV
Experimental: This test procedure is described in the following paragraphs.
This screen consists of determining the effects of increasing intravenous doses of compound on mycardial contractility (dP/dt max of left ventricular blood pressure), heart rate, and aortic blood pressure of the pentobarbital-anesthetized dog.
Adult mongrel dogs of either sex are anesthetized with pentobarbital, 35 mg/kg, IV, and are subsequently maintained under anesthesia with a continuous infusion of pentobarbital, 3.5 mg/kg/hour. The trachea is intubated but the animals are permitted to breathe spontaneously. A cannula is inserted into the femoral vein for administrating test agents. A Millar catheter tip pressure transducer or a fluid filled catheter is inserted into the ascending aorta via the femoral artery for measuring aortic blood pressure. A Millar catheter tip pressure transducer is passed into the left ventricle via the left carotid artery for measuring left ventricular blood pressure. Needle electrodes are placed subcutaneously for recording a lead II electrocardiogram (ECG).
Left ventricular and aortic blood pressures are recorded on a strip chart recorder. Heart rate, using a biotachometer triggered from the R wave of the ECG, and the first derivative of left ventricular blood pressure (dP/dt), obtained with a differentiator amplifier coupled to the corresponding pressure amplifier, are also recorded. A period of at least 30 minutes is utilized to obtain control data prior to administration of test compound.
Ethanol or dimethylacetamide can be used as solvents if adequate dilutions can be made. Appropriate vehicle controls are administered when needed.
Each dose of the test compound is administered in a volume of […] over a period of one minute.

[5] = 0.10 mg/kg IV, read-out: Percent Change Heart Rate
[6] = 0.10 mg/kg IV, read-out: Percent Change Myocardial Contractility
[7] = read-out: Percent Change Heart Rate
[8] = read-out: Percent Change Myocardial Contractility
[9] = read-out: Percent Change Blood Pressure

SMILES | % Inhibition of hydrolysis of 3H-cAMP [1] [%] | % Inhibition of hydrolysis of 3H-cGMP [1] [%] | pIC50 [2] | % Inhibition of hydrolysis of 3H-cAMP [3] [%] | Percent Change Blood Pressure ([4]; 0.10 mg/kg IV) | change in vivo at 0.1 mg/kg [4, 5] [%] | change in vivo at 0.1 mg/kg [4, 6] [%] | change in vivo at 0.31 mg/kg [4, 7] [%] | change in vivo at 0.31 mg/kg [4, 8] [%] | change in vivo at 1 mg/kg [4, 7] [%] | change in vivo at 1 mg/kg [4, 8] [%] | change in vivo at 3.1 mg/kg [4, 7] [%] | change in vivo at 3.1 mg/kg [4, 8] [%] | change in vivo at 0.1 mg/kg ([4]; 0.10 mg/kg IV, read-out: Percent Change Blood Pressure) [%] | change in vivo at 1 mg/kg [4, 9] [%] | change in vivo at 3.1 mg/kg [4, 9] [%]
Cc1nn(C)c2c(=O)[nH]c(-c3cccnc3)nc12 [Example 4, 1,3-Dimethyl-5-(3-pyridyl)pyrazolo[4,3-d]pyrimidine-7-one] | 6 | 4 | 5.51 | 3 | 0/0 | 0 | 2 | 1 | 7 | 4 | 27 | 9 | 55 |  |  | 
CCn1nc(C)c2nc(-c3ccccc3)[nH]c(=O)c21 [Example 5, 1-Ethyl-3-methyl-5-phenylpyrazolo[4,3-d]pyrimidine-7-one] | 29 | 29 | 6.17 | 56 |  | 7 | 10 |  |  | 43 | 77 | 50 | 100 | 2 | 1 | 1
Cc1nn(C)c2c(=O)[nH]c(-c3ccccc3)nc12 [Example 6, 1,3-Dimethyl-5-phenylpyrazolo[4,3-d]pyrimidine-7-one] | 6 | 14 | 5.99 | 35 |  | -1 | 4 | -4 | 3 | 7 | 20 | 37 | 45 |  |  | 
Cc1nn(C)c2c(=O)[nH]c(-c3ccc(Cl)cc3N)nc12 [Example 19, 1,3-Dimethyl-5-(2-amino-4-chlorophenyl)pyrazolo[4,3-d]pyrimidine-7-one] | 16 | 12 | 6.50 | 5 |  |  |  |  |  |  |  |  |  |  |  | 
